Data reported in patent publication US20240228572A1 (i2o Therapeutics, Inc., priority 2020, published 2024).
*1 amine or outer side, *2 acyl side, *3 side chain or, on linkers, in order; H or OH if unused. Where a SMILES comes first, the peptide text is derived from it. Bridges are numbered along the chain shown (N, C = ends). Side-chain parts run from the residue outwards. [ ]: non-standard residue; d: D form. The star is where a group is joined. C20 diacid = O=C(O)CCCCCCCCCCCCCCCCCCC(=O)*; γGlu = O=C(O)[C@H](CCC(=O)[*:2])N[*:1]; AEEA = NCCOCCOCC(=O)O; Aib = CC(C)(N)C(=O)O

Target: T1, human GLP-1 receptor (GLP-1R) (Homo sapiens, UniProt P43220)
T1 construct: expressed in transfected cells
T1 sequence (P43220 24-463): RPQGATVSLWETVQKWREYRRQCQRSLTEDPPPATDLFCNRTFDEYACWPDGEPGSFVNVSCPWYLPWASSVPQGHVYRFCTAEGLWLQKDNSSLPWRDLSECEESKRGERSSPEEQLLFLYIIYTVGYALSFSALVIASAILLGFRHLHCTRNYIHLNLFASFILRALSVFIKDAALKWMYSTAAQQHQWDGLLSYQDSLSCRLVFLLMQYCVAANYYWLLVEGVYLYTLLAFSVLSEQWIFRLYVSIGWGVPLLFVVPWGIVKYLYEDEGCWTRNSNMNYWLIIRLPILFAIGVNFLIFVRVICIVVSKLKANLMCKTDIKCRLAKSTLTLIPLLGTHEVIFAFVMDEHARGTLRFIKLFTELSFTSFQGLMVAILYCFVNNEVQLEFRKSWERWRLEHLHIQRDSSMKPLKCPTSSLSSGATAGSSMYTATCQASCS
Test: cAMP accumulation assay, CHO-K1 cells stably expressing human GLP-1R
Assay type: cell-based
Conditions: cAMP accumulation, mean pEC50, Table 10
Method: In the presence of the non-specific cAMP/cGMP phosphodiesterase inhibitor, 3-isobutyl-1-methylxanthine (IBMX), accumulating cAMP can be measured in vitro using common detection methods. Thus, it is possible to estimate an in vitro potency (pEC50) for peptides activating each of these receptors using fit dose-response curves for cAMP accumulation.
CHO-K1 cells stably expressing human GLP-1R (Genebank accession #NM_002062) were grown in 90% F12-K media supplemented with 10% FBS and 250 μg/ml G418.
On day 1, CHO-K1 cells were plated at 1.5 million cells per T75 flask in 90% F12-K media supplemented with 10% FBS. On day 3 cells were transfected with 40 mcg of each expression plasmid using Lipofectamine 2000 transfection reagent. On day 5, cells were dispensed at 1000 cells per well in white 384-well OptiPlates in 5 mcL of assay buffer consisting of 1×HBSS, 5 mM HEPES, 0.5 mM IBMX, and 0.1% casein.
Peptides were serially diluted 4-fold in assay buffer to final concentrations ranging from 1×10^−9 M to 9.5×10^−16 M. Two assay controls consisting of 50 mcM forskolin (cAMP system maximum) or assay buffer only (cAMP system minimum) were also prepared. Five microliters of each peptide-concentration, or assay control, was added to triplicate wells and incubated for thirty minutes at room temperature. During this incubation step a 4× europium labelled cAMP tracer solution and a 4× Ulight®-anti-cAMP solution (consisting of an anti-cAMP monoclonal antibody labelled with Ulight™ dye) was prepared according to the manufacturer's protocol (PerkinElmer LANCE Ultra cAMP kit). Following this incubation, 5 mcL europium labelled cAMP and 5 mcL Ulight anti-cAMP antibody was added to each well. The plate was covered to prevent evaporation and incubated for 60 minutes at room temperature in the dark. Plates were read on an Envision fluorescent plate reader (PerkinElmer).
Test values were first normalized to the system maximum and system minimum averaged values in Excel using the formula: (test value−system min average)/(system max average -system min average)*100. Normalized test values represent a baseline corrected percentage of the system maximum cAMP response induced by forskolin. Data from up to 3 replicate tests were analyzed for each peptide. Potency values were estimated using GraphPad Prism software (v7.04) by fitting data to a 4-parameter logistic curve model: Y=Bottom+(Top−Bottom)/(1+10^((LogEC50−X))). The Hill slope was constrained to 1.0. EC50 values were converted to pEC50 values using the formula: pEC50=−Log (EC50).

SMILES | EC50 [nM]
CC(C)C[C@@H]1NC(=O)[C@H](Cc2c[nH]c3ccccc23)NC(=O)[C@@H](NC(=O)[C@@H](NC(=O)[C@H](Cc2ccccc2)NC(=O)[C@H](CCCCNC(=O)CC[C@H](NC(=O)CC[C@H](NC(=O)COCCOCCNC(=O)CCCCCCCCCCCCCCCCCCC(=O)O)C(=O)O)C(=O)O)NC(=O)[C@H](CCC(N)=O)NC(=O)[C@H](C)NC(=O)[C@H](Cc2ccc(O)cc2)NC(=O)[C@H](CCCCN)NC(=O)C(C)(C)NC(=O)[C@H](CC(=O)O)NC(=O)[C@H](CC(C)C)NC(=O)[C@H](Cc2ccc(O)cc2)NC(=O)[C@H](CCCCN)NC(=O)[C@H](CO)NC(=O)[C@H](Cc2ccc(O)cc2)NC(=O)[C@H](CC(=O)O)NC(=O)[C@H](CO)NC(=O)[C@@H](NC(=O)[C@H](Cc2ccccc2)NC(=O)[C@@H](NC(=O)CNC(=O)[C@H](Cc2c[nH]cn2)NC(=O)[C@H](CO)NC(=O)[C@@H](N)Cc2ccc(O)cc2)[C@@H](C)O)[C@@H](C)O)C(C)C)CCCCNC(=O)C[C@@H](C(=O)N[C@@H](CCC(=O)O)C(=O)N2CCC[C@H]2C(=O)N[C@@H](CO)C(=O)N[C@@H](CO)C(=O)NCC(=O)N[C@@H](C)C(=O)N2CCC[C@H]2C(=O)N2CCC[C@H]2C(=O)N2CCC[C@H]2C(=O)N[C@@H](CO)C(=O)O)NC(=O)[C@H](CCC(=O)O)NC1=O [Compound A30] (H-YSHGTFTSDYSKYLD[Aib]KYAQK([γGlu-γGlu-AEEA-C20 diacid])FVKWLEDEPSSGAPPPS-OH; lactam 24-28) | > 1
CC(C)C[C@H](NC(=O)[C@H](Cc1ccc(O)cc1)NC(=O)[C@H](CCCCN)NC(=O)[C@H](CO)NC(=O)[C@H](Cc1ccc(O)cc1)NC(=O)[C@H](CC(=O)O)NC(=O)[C@H](CO)NC(=O)[C@@H](NC(=O)[C@H](Cc1ccccc1)NC(=O)[C@@H](NC(=O)CNC(=O)[C@H](Cc1c[nH]cn1)NC(=O)[C@H](CO)NC(=O)[C@@H](N)Cc1ccc(O)cc1)[C@@H](C)O)[C@@H](C)O)C(=O)N[C@@H](CC(=O)O)C(=O)N[C@@H](CCCCNC(=O)CC[C@H](NC(=O)CC[C@H](NC(=O)COCCOCCNC(=O)CCCCCCCCCCCCCCCCCCC(=O)O)C(=O)O)C(=O)O)C(=O)N[C@@H](CCCCN)C(=O)N[C@@H](Cc1ccc(O)cc1)C(=O)N[C@@H](C)C(=O)N[C@@H](CCC(N)=O)C(=O)N[C@@H](CCC(=O)O)C(=O)N[C@@H](Cc1ccccc1)C(=O)N[C@H](C(=O)NC(C)(C)C(=O)N[C@@H](Cc1c[nH]c2ccccc12)C(=O)N[C@@H](CC(C)C)C(=O)N[C@@H](CCC(=O)O)C(=O)N[C@@H](CCCCN)C(=O)N[C@@H](CCC(=O)O)C(=O)N1CCC[C@H]1C(=O)N[C@@H](CO)C(=O)N[C@@H](CO)C(=O)NCC(=O)N[C@@H](C)C(=O)N1CCC[C@H]1C(=O)N1CCC[C@H]1C(=O)N1CCC[C@H]1C(=O)N[C@@H](CO)C(=O)O)C(C)C [Compound A20] (H-YSHGTFTSDYSKYLDK([γGlu-γGlu-AEEA-C20 diacid])KYAQEFV[Aib]WLEKEPSSGAPPPS-OH; N-terminus assumed) | > 1
CC(C)C[C@H](NC(=O)[C@H](Cc1ccc(O)cc1)NC(=O)[C@H](CCCCN)NC(=O)[C@H](CO)NC(=O)[C@H](Cc1ccc(O)cc1)NC(=O)[C@H](CC(=O)O)NC(=O)[C@H](CO)NC(=O)[C@@H](NC(=O)[C@H](Cc1ccccc1)NC(=O)[C@@H](NC(=O)CNC(=O)[C@H](Cc1c[nH]cn1)NC(=O)[C@H](CO)NC(=O)[C@@H](N)Cc1ccc(O)cc1)[C@@H](C)O)[C@@H](C)O)C(=O)N[C@@H](CC(=O)O)C(=O)N[C@@H](CCCCNC(=O)CC[C@H](NC(=O)CC[C@H](NC(=O)COCCOCCNC(=O)CCCCCCCCCCCCCCCCCCC(=O)O)C(=O)O)C(=O)O)C(=O)N[C@@H](CCCCN)C(=O)N[C@@H](Cc1ccc(O)cc1)C(=O)N[C@@H](C)C(=O)N[C@@H](CCC(N)=O)C(=O)N[C@@H](CCC(=O)O)C(=O)N[C@@H](Cc1ccccc1)C(=O)N[C@H](C(=O)NC(C)(C)C(=O)N[C@@H](Cc1c[nH]c2ccccc12)C(=O)N[C@@H](CC(C)C)C(=O)N[C@@H](CCC(=O)O)C(=O)N[C@@H](CO)C(=O)N[C@@H](CCC(=O)O)C(=O)N1CCC[C@H]1C(=O)N[C@@H](CO)C(=O)N[C@@H](CO)C(=O)NCC(=O)N[C@@H](C)C(=O)N1CCC[C@H]1C(=O)N1CCC[C@H]1C(=O)N1CCC[C@H]1C(=O)N[C@@H](CO)C(=O)O)C(C)C [Compound A19] (H-YSHGTFTSDYSKYLDK([γGlu-γGlu-AEEA-C20 diacid])KYAQEFV[Aib]WLESEPSSGAPPPS-OH) | > 1
CC(C)C[C@H](NC(=O)[C@H](Cc1ccc(O)cc1)NC(=O)[C@H](CCCCN)NC(=O)[C@H](CO)NC(=O)[C@H](Cc1ccc(O)cc1)NC(=O)[C@H](CC(=O)O)NC(=O)[C@H](CO)NC(=O)[C@@H](NC(=O)[C@H](Cc1ccccc1)NC(=O)[C@@H](NC(=O)CNC(=O)[C@H](Cc1c[nH]cn1)NC(=O)[C@H](CO)NC(=O)[C@@H](N)Cc1ccc(O)cc1)[C@@H](C)O)[C@@H](C)O)C(=O)N[C@@H](CC(=O)O)C(=O)N[C@@H](CCCCNC(=O)CC[C@H](NC(=O)CC[C@H](NC(=O)COCCOCCNC(=O)CCCCCCCCCCCCCCCCCCC(=O)O)C(=O)O)C(=O)O)C(=O)N[C@@H](CCCCN)C(=O)N[C@@H](Cc1ccc(O)cc1)C(=O)N[C@@H](C)C(=O)N[C@@H](CO)C(=O)N[C@@H](CCC(=O)O)C(=O)N[C@@H](Cc1ccccc1)C(=O)N[C@H](C(=O)NC(C)(C)C(=O)N[C@@H](Cc1c[nH]c2ccccc12)C(=O)N[C@@H](CC(C)C)C(=O)N[C@@H](CCC(=O)O)C(=O)N[C@@H](CO)C(=O)N[C@@H](CCC(=O)O)C(=O)N1CCC[C@H]1C(=O)N[C@@H](CO)C(=O)N[C@@H](CO)C(=O)NCC(=O)N[C@@H](C)C(=O)N1CCC[C@H]1C(=O)N1CCC[C@H]1C(=O)N1CCC[C@H]1C(=O)N[C@@H](CO)C(=O)O)C(C)C [Compound A24] (H-YSHGTFTSDYSKYLDK([γGlu-γGlu-AEEA-C20 diacid])KYASEFV[Aib]WLESEPSSGAPPPS-OH; N-terminus assumed) | > 1
CC(C)C[C@H](NC(=O)[C@H](Cc1ccc(O)cc1)NC(=O)[C@H](CCCCN)NC(=O)[C@H](CO)NC(=O)[C@H](Cc1ccc(O)cc1)NC(=O)[C@H](CC(=O)O)NC(=O)[C@H](CO)NC(=O)[C@@H](NC(=O)[C@H](Cc1ccccc1)NC(=O)[C@@H](NC(=O)CNC(=O)[C@H](Cc1c[nH]cn1)NC(=O)[C@H](CO)NC(=O)[C@@H](N)Cc1ccc(O)cc1)[C@@H](C)O)[C@@H](C)O)C(=O)N[C@@H](CC(=O)O)C(=O)N[C@@H](CCCCNC(=O)CC[C@H](NC(=O)CC[C@H](NC(=O)COCCOCCNC(=O)CCCCCCCCCCCCCCCCCCC(=O)O)C(=O)O)C(=O)O)C(=O)N[C@@H](CCCCN)C(=O)N[C@@H](Cc1ccc(O)cc1)C(=O)N[C@@H](C)C(=O)N[C@H]1CCC(=O)NCCCC[C@@H](C(=O)N[C@@H](Cc2c[nH]c3ccccc23)C(=O)N[C@@H](CC(C)C)C(=O)N[C@@H](CCC(=O)O)C(=O)N[C@@H](CC(=O)O)C(=O)N[C@@H](CCC(=O)O)C(=O)N2CCC[C@H]2C(=O)N[C@@H](CO)C(=O)N[C@@H](CO)C(=O)NCC(=O)N[C@@H](C)C(=O)N2CCC[C@H]2C(=O)N2CCC[C@H]2C(=O)N2CCC[C@H]2C(=O)N[C@@H](CO)C(=O)O)NC(=O)[C@H](C(C)C)NC(=O)[C@H](Cc2ccccc2)NC(=O)[C@H](CCCCN)NC1=O [Compound A21] (H-YSHGTFTSDYSKYLDK([γGlu-γGlu-AEEA-C20 diacid])KYAEKFVKWLEDEPSSGAPPPS-OH; lactam 20-24; N-terminus assumed) | > 1
CC(C)C[C@H](NC(=O)[C@H](Cc1ccc(O)cc1)NC(=O)[C@H](CCCCN)NC(=O)[C@H](CO)NC(=O)[C@H](Cc1ccc(O)cc1)NC(=O)[C@H](CC(=O)O)NC(=O)[C@H](CO)NC(=O)[C@@H](NC(=O)[C@H](Cc1ccccc1)NC(=O)[C@@H](NC(=O)CNC(=O)[C@H](Cc1c[nH]cn1)NC(=O)[C@H](CO)NC(=O)[C@@H](N)Cc1ccc(O)cc1)[C@@H](C)O)[C@@H](C)O)C(=O)N[C@@H](CC(=O)O)C(=O)N[C@@H](CCCCNC(=O)CC[C@H](NC(=O)CC[C@H](NC(=O)COCCOCCNC(=O)CCCCCCCCCCCCCCCCCCC(=O)O)C(=O)O)C(=O)O)C(=O)N[C@@H](CCCCN)C(=O)N[C@@H](Cc1ccc(O)cc1)C(=O)N[C@@H](C)C(=O)N[C@@H](CCC(N)=O)C(=O)N[C@@H](CCC(=O)O)C(=O)N[C@@H](Cc1ccccc1)C(=O)N[C@H](C(=O)NC(C)(C)C(=O)N[C@@H](Cc1c[nH]c2ccccc12)C(=O)N[C@@H](CC(C)C)C(=O)N[C@@H](CCC(=O)O)C(=O)N[C@@H](CCC(N)=O)C(=O)N[C@@H](CCC(=O)O)C(=O)N1CCC[C@H]1C(=O)N[C@@H](CO)C(=O)N[C@@H](CO)C(=O)NCC(=O)N[C@@H](C)C(=O)N1CCC[C@H]1C(=O)N1CCC[C@H]1C(=O)N1CCC[C@H]1C(=O)N[C@@H](CO)C(=O)O)C(C)C [Compound A17] (H-YSHGTFTSDYSKYLDK([γGlu-γGlu-AEEA-C20 diacid])KYAQEFV[Aib]WLEQEPSSGAPPPS-OH; N-terminus assumed) | > 1
